The source of these data is patent US7268128B2, “1,3,5-trisubstituted-5-phenyl and 5-pyridyl pyrazolopyrimidinone derivatives having PDE7 inhibiting action” (Ausbio Pharma Co., Ltd., priority 2001, dated 2007).

SMILES strings stand for the structures.

For the assay, the target named is T1, PDE7 (type VII phosphodiesterase) (Homo sapiens, UniProt Q13946).
T1 construct: endogenous in cells; host or cells: MOLT-4 (ATCC CRL-1582), soluble fraction, HiTrapQ anion-exchange fraction
T1 sequence (Q13946 whole entry): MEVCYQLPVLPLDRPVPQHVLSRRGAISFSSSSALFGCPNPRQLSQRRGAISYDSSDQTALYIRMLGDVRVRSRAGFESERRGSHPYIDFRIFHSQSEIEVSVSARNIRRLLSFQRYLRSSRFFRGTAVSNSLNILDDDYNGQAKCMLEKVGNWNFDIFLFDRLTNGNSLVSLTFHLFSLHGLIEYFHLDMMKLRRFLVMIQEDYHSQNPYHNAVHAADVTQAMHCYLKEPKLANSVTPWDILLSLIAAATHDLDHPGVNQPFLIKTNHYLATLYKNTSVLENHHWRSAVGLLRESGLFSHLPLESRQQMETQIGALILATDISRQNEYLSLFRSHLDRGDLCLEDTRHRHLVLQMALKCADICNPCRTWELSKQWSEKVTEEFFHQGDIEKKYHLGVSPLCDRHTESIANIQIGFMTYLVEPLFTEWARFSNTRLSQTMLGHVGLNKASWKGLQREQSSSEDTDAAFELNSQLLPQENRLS
The assay is described as follows: PDE7 inhibiting activity (3H-cAMP hydrolysis, active fraction from MOLT-4 cells). The format is biochemical. As to conditions: PDE7 fraction from MOLT-4 cells, 0.064 μM cAMP, 10 μM rolipram present, 2 hours at 25° C.; read-out: IC50 values for phosphodiesterase inhibiting activities (PDE7). In outline: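 Read-out: supernatant radioactivity after twice-repeated QAE-Sephadex treatment of a 2 h, 25° C reaction (3H-cAMP at 0.064 μM cAMP, 10 μM rolipram, 5′-nucleotidase, 1 mM MgCl2, pH 7.5). Enzyme is an anion-exchange-purified fraction from MOLT-4 T cells. IC50 taken as half-maximal inhibition.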
Usually IC50 stands for the point on the concentration scale where inhibition reaches its midpoint. Consider `COc1cc(N2CCCNCC2)ccc1-c1nc2c(c(C3CCCCC3)nn2C)c(=O)[nH]1` [Example 134, 3-Cyclohexyl-6-[4-(1,4-diazepan-1-yl)-2-methoxyphenyl]-1-methyl-1,5-dihydro-4H-pyrazolo[3,4-d]pyrimidin-4-one monomethanesulfonate], for which the half-maximal inhibitory concentration (IC50) is at most 10 nM.

With `COc1cc(N2CCCN(C)CC2)ccc1-c1nc2c(c(C3CCCCC3)nn2C)c(=O)[nH]1` [Example 136, 3-Cyclohexyl-6-[2-methoxy-4-(4-methyl-1,4-diazepan-1-yl)phenyl]-1-methyl-1,5-dihydro-4H-pyrazolo[3,4-d]pyrimidin-4-one monomethanesulfonate], the IC50 is at most 10 nM.

Regarding `CN1CCN(c2ccc(-c3nc4c(c(C5CCCCC5)nn4C)c(=O)[nH]3)c(OC(F)F)c2)CC1` [Example 139, 3-Cyclohexyl-6-[2-(difluoromethoxy)-4-(4-methyl-1-piperazinyl)phenyl]-1-methyl-1,5-dihydro-4H-pyrazolo[3,4-d]pyrimidin-4-one monomethanesulfonate], the IC50 is at most 1000 nM.

As to `COc1cc(NC(N)=O)ccc1-c1nc2c(c(C3CCCCC3)nn2C)c(=O)[nH]1` [Example 140, N-[4-(3-cyclohexyl-1-methyl-4-oxo-4,5-dihydro-1H-pyrazolo[3,4-d]pyrimidin-6-yl)-3-methoxyphenyl]urea], the IC50 was at most 10 nM.

For `COc1cc(NS(C)(=O)=O)ccc1-c1nc2c(c(C3CCCCC3)nn2C)c(=O)[nH]1` [Example 142, N-[4-(3-cyclohexyl-1-methyl-4-oxo-4,5-dihydro-1H-pyrazolo[3,4-d]pyrimidin-6-yl)-3-methoxyphenyl]methanesulfonamide], the IC50 is at most 10 nM.

Turning to `COc1cc(N2CCOC2=O)ccc1-c1nc2c(c(C3CCCCC3)nn2C)c(=O)[nH]1` [Example 143, 3-Cyclohexyl-6-[2-methoxy-4-(2-oxo-1,3-oxazolidin-3-yl)phenyl]-1-methyl-1,5-dihydro-4H-pyrazolo[3,4-d]pyrimidin-4-one], the IC50 is at most 10 nM.

As to `COc1cc(N2CCNC2=O)ccc1-c1nc2c(c(C3CCCCC3)nn2C)c(=O)[nH]1` [Example 144, 3-Cyclohexyl-6-[2-methoxy-4-(2-oxo-1-imidazolidinyl)phenyl]-1-methyl-1,5-dihydro-4H-pyrazolo[3,4-d]pyrimidin-4-one], the IC50 was at most 10 nM.

As to `CCOC(=O)Nc1ccc(-c2nc3c(c(C4CCCCC4)nn3C)c(=O)[nH]2)c(OC)c1` [Example 145, Ethyl 4-(3-cyclohexyl-1-methyl-4-oxo-4,5-dihydro-1H-pyrazolo[3,4-d]pyrimidin-6-yl)-3-methoxyphenylcarbamate], the IC50 is at most 10 nM.

For the molecule `COc1cc(N(C)C(C)=O)ccc1-c1nc2c(c(C3CCCCC3)nn2C)c(=O)[nH]1` [Example 146, N-[4-(3-cyclohexyl-1-methyl-4-oxo-4,5-dihydro-1H-pyrazolo[3,4-d]pyrimidin-6-yl)-3-methoxyphenyl]-N-methylacetamide], the IC50 is at most 1000 nM.

In the case of `COc1cc(N(C)S(C)(=O)=O)ccc1-c1nc2c(c(C3CCCCC3)nn2C)c(=O)[nH]1` [Example 147, N-[4-(3-cyclohexyl-1-methyl-4-oxo-4,5-dihydro-1H-pyrazolo[3,4-d]pyrimidin-6-yl)-3-methoxyphenyl]-N-methylmethanesulfonamide], the concentration for half-maximal inhibition (IC50) is at most 1000 nM.

For `COc1cc(NC(=O)N2CCOCC2)ccc1-c1nc2c(c(C3CCCCC3)nn2C)c(=O)[nH]1` [Example 148, N-[4-(3-cyclohexyl-1-methyl-4-oxo-4,5-dihydro-1H-pyrazolo[3,4-d]pyrimidin-6-yl)-3-methoxyphenyl]-4-morpholinecarboxamide], the IC50 was at most 10 nM.

For the molecule `CNC1CCN(c2ccc(-c3nc4c(c(C5CCCCC5)nn4C)c(=O)[nH]3)c(OC)c2)CC1` [Example 150, 3-Cyclohexyl-6-{2-methoxy-4-[4-(methylamino)-1-piperidinyl]phenyl}-1-methyl-1,5-dihydro-4H-pyrazolo[3,4-d]pyrimidin-4-one monomethanesulfonate], the IC50 is at most 10 nM.

`COc1cc(N2CCN(C)C2=O)ccc1-c1nc2c(c(C3CCCCC3)nn2C)c(=O)[nH]1` [Example 152, 3-Cyclohexyl-6-[2-methoxy-4-(3-methyl-2-oxo-1-imidazolidinyl)phenyl]-1-methyl-1,5-dihydro-4H-pyrazolo[3,4-d]pyrimidin-4-one]: the IC50 was at most 10 nM.

For `COc1cc(N2CCC(N(C)C)CC2)ccc1-c1nc2c(c(C3CCCCC3)nn2C)c(=O)[nH]1` [Example 154, 3-Cyclohexyl-6-{4-[4-(dimethylamino)-1-piperidinyl]-2-methoxyphenyl}-1-methyl-1,5-dihydro-4H-pyrazolo[3,4-d]pyrimidin-4-one monomethanesulfonate], the IC50 is at most 10 nM.

As for `COc1cc(N2CCCS2(=O)=O)ccc1-c1nc2c(c(C3CCCCC3)nn2C)c(=O)[nH]1` [Example 155, 3-Cyclohexyl-6-[4-(1,1-dioxido-2-isothiazolidinyl)-2-methoxyphenyl]-1-methyl-1,5-dihydro-4H-pyrazolo[3,4-d]pyrimidin-4-one], the IC50 is at most 10 nM.

In the case of `COc1cc(S(=O)(=O)N(C)CCO)ccc1-c1nc2c(c(C3CCCCC3)nn2C)c(=O)[nH]1` [Example 156, 4-(3-Cyclohexyl-1-methyl-4-oxo-4,5-dihydro-1H-pyrazolo[3,4-d]pyrimidin-6-yl)-N-(2-hydroxyethyl)-3-methoxy-N-methylbenzenesulfonamide], the IC50 is at most 1000 nM.

Turning to `COc1cc(S(=O)(=O)N(C)CCN(C)C)ccc1-c1nc2c(c(C3CCCCC3)nn2C)c(=O)[nH]1` [Example 158, 4-(3-Cyclohexyl-1-methyl-4-oxo-4,5-dihydro-1H-pyrazolo[3,4-d]pyrimidin-6-yl)-N-(2-(dimethylamino)ethyl)-3-methoxy-N-methylbenzenesulfonamide monomethanesulfonate], the IC50 is at most 1000 nM.

In the case of `COc1cc(S(=O)(=O)NCCCO)ccc1-c1nc2c(c(C3CCCCC3)nn2C)c(=O)[nH]1` [Example 159, 4-(3-Cyclohexyl-1-methyl-4-oxo-4,5-dihydro-1H-pyrazolo[3,4-d]pyrimidin-6-yl)-N-(3-hydroxypropyl)-3-methoxybenzenesulfonamide], the IC50 was at most 1000 nM.

In the case of `COc1cc(S(=O)(=O)N2CCCNCC2)ccc1-c1nc2c(c(C3CCCCC3)nn2C)c(=O)[nH]1` [Example 161, 3-Cyclohexyl-6-[4-(1,4-diazepan-1-ylsulfonyl)-2-methoxyphenyl]-1-methyl-1,5-dihydro-4H-pyrazolo[3,4-d]pyrimidin-4-one monomethanesulfonate], the IC50 was at most 1000 nM.

In the case of `COc1cc(S(=O)(=O)N2CCCN(C)CC2)ccc1-c1nc2c(c(C3CCCCC3)nn2C)c(=O)[nH]1` [Example 163, 3-Cyclohexyl-6-{2-methoxy-4-[(4-methyl-1,4-diazepan-1-yl)sulfonyl]phenyl}-1-methyl-1,5-dihydro-4H-pyrazolo[3,4-d]pyrimidin-4-one monomethanesulfonate], the IC50 was at most 10 nM.

For the molecule `COc1cc(S(=O)(=O)N2CCC(O)C2)ccc1-c1nc2c(c(C3CCCCC3)nn2C)c(=O)[nH]1` (stereo not drawn) [Example 164, 3-Cyclohexyl-6-{4-[(3-hydroxy-1-pyrrolidinyl)sulfonyl]-2-methoxyphenyl}-1-methyl-1,5-dihydro-4H-pyrazolo[3,4-d]pyrimidin-4-one], the 50% inhibitory concentration (IC50) was at most 1000 nM.
